The values that follow are results of earlier work, collected in patent US20090246278A1, “USE OF ESSENTIAL OILS TO REDUCE BENZODIAZEPINE REQUIREMENTS DURING MEDICAL PROCEDURES” (priority 2008, published 2009).

This data set relates to GABA receptors. The conditions noted are these: effects antagonized by flumazenil.

Regarding `CC1=CCC2CC1C2(C)C` (stereo not drawn) [α-pinene, alpha-pinene], the GABA-ergic properties result is “exert GABA-ergic properties”.
On to `C=C1CCC2CC1C2(C)C` (stereo not drawn) [β-pinene, beta-pinene], for which the GABA-ergic properties entry is listed as “exert GABA-ergic properties”.
